For data set [1], the target named is T1, Insulin-like growth factor 1 receptor (Homo sapiens, UniProt P08069). Briefly: Inhibition of IGF1R in IGF1R-SAL cells. The data set is classed as cell-based.
A short description of data set [2]: Permeability by PAMPA assay. Conditions: for Papp: read-out: permeability. The data set is classed as ADME. A general note: In PAMPA a lipid-coated filter parts donor from acceptor wells.
Data set [3] addresses T1, Insulin-like growth factor 1 receptor. Briefly: Inhibition of IGF1R.

Molecules are shown by their SMILES. pIC50: −log10 of the molar value.

T1 sequence (P08069 31-736 limits assumed): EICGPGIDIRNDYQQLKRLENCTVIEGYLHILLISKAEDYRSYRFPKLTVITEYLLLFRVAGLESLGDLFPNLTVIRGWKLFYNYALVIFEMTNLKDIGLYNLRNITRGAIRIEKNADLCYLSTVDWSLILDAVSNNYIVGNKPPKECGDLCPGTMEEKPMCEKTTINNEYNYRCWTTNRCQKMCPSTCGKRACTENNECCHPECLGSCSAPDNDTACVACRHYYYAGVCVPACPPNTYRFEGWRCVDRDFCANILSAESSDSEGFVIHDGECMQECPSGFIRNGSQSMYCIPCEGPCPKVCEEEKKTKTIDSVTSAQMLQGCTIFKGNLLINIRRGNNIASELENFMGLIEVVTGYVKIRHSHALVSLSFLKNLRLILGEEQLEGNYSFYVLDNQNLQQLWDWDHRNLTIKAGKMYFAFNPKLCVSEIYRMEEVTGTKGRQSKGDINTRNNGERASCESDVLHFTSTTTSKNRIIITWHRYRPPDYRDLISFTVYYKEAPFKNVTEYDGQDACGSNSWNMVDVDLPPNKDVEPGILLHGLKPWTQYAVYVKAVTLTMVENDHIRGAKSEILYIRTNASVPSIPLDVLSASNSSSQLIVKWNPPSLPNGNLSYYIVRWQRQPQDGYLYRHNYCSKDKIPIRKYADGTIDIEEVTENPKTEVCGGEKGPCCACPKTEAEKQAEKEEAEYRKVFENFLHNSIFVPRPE
T1 sequence (P08069 741-1367 limits assumed): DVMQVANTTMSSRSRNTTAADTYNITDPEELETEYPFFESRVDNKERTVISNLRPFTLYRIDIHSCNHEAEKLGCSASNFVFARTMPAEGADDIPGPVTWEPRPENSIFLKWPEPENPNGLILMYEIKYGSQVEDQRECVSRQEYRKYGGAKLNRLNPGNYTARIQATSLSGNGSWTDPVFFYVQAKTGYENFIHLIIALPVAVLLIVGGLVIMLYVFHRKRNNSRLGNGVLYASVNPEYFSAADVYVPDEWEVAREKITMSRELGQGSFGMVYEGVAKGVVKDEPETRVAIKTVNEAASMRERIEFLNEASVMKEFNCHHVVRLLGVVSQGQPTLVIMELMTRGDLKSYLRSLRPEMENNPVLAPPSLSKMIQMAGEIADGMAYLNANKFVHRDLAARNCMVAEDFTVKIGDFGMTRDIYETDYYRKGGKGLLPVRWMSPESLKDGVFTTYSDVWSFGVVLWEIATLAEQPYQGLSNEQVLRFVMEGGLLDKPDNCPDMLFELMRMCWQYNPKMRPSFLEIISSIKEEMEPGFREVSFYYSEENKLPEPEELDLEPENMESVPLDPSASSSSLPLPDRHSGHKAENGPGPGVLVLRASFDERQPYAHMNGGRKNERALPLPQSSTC

Usually pIC50 stands for the IC50 on a negative log10 scale, so that one unit is a factor of ten. Lower therefore signals a large IC50. With `O=C(Nc1ccc(F)nc1)[C@@H]1CCCN1c1nc(Nc2cc(C3CC3)[nH]n2)c2cccn2n1`, the pIC50 in data set [1] is 9.00; in data set [3] it was 8.57. Moreover, the Papp in data set [2] came out at 77 ×10⁻⁶ cm/s.
In turn, `O=C(c1ccc(F)nc1)N1CCC[C@H]1c1nc(Nc2cc(C3CC3)[nH]n2)c2cccn2n1` showed a pIC50 in data set [1] of 6.79. For the same compound, the Papp in data set [2] stood at 72.1 ×10⁻⁶ cm/s.
In the case of `O=C(c1ccc(F)nc1)N1CCC[C@@H]1c1nc(Nc2cc(C3CC3)[nH]n2)c2cccn2n1`, the Papp in data set [2] stood at 93.5 ×10⁻⁶ cm/s. The same compound gave a pIC50 in data set [3] of 5.08.
For `O=C1CC[C@@H](c2nc(Nc3cc(C4CC4)[nH]n3)c3cccn3n2)N1C(=O)c1ccc(F)nc1`, the pIC50 in data set [1] was 6.29; in data set [3], 7.96. In addition, the Papp in data set [2] is 60 ×10⁻⁶ cm/s.
The matching figures for `O=C(Nc1ccc(F)nc1)C1=C(c2nc(Nc3cc(C4CC4)[nH]n3)c3cccn3n2)CCC1`: 6.63, 7.49 and 82.2 ×10⁻⁶ cm/s.
For `O=C(NCc1nc(Nc2cc(C3CC3)n[nH]2)c2cccn2n1)c1ccc(F)nc1`, the pIC50 in data set [1] was 7.40. Moreover, the Papp in data set [2] was determined as 52.5 ×10⁻⁶ cm/s.
On to `O=C(Nc1ccc(F)nc1)[C@@H]1CCC[C@H]1c1nc(Nc2cc(C3CC3)n[nH]2)c2cccn2n1` (stereo in doubt; (+)-25), for which the values for the pIC50 in data set [1] and in data set [3] were 6.69 and 8.01, respectively. In data set [2], the Papp was 50.9 ×10⁻⁶ cm/s.
As to `O=C(Nc1ccc(F)nc1)[C@@H]1CCC[C@H]1c1nc(Nc2cc(C3CC3)n[nH]2)c2cccn2n1` (stereo in doubt; (-)-25), the pIC50 in data set [1] is 6.41; in data set [3], 6.72. For the same compound, the permeability in data set [2] came to 85.4 ×10⁻⁶ cm/s.
As to `C[C@@]1(C(=O)Nc2ccc(F)nc2)CCCN1c1nc(Nc2cc(C3CC3)n[nH]2)c2cccn2n1` [BMS-754807], the Papp in data set [2] is 63.4 ×10⁻⁶ cm/s.

For the origin of these results see ChEMBL document CHEMBL1221304, “Proline isosteres in a series of 2,4-disubstituted pyrrolo[1,2-f][1,2,4]triazine inhibitors of IGF-1R kinase and IR kinase” (Bioorg Med Chem Lett, 2010).
